Measured values published in US4667020A, “Aromatic disazo dyes and liquid-crystalline materials containing these dyes” (BASF Aktiengesellschaft, priority 1984, dated 1987).

Columns and labels:
[1] = degree of order S in liquid crystal mixture; type: physicochemical
Experimental: (§1) The degree of order S measured at room temperature, the solubility L, likewise determined at room temperature, and the Merck liquid crystal mixtures used are summarized in Table 1 for the Examples 1, 2 and 4-12.
The degree of order S was determined in commercial measuring cells with a homogeneous edge orientation, using the known equation [formula] (polyimide). The dichroic ratio CR was determined by measuring the extinctions E.parallel. (measurement with light polarized parallel to the preferred direction of the nematic phase) and E.perp. (measurement with light polarized at right angles to the preferred direction of the nematic phase) and using the relationship [formula] the dye concentration being chosen so that E.parallel. was from 1 to 2. The measurements were carried out on a Beckmann Acta CIII spectrophotometer.

[2] = solubility L in liquid crystal mixture; type: physicochemical; settings: 1 week stirring
Experimental: as §1
The solubility was determined as follows:
50 mg of the particular dye were stirred in 1 ml of liquid-crystalline mixture for 1 week at room temperature, the saturated solution was separated from the residue by centrifuging, and the solubility was determined by comparison of the extinctions.

[3] = liquid crystal mixture ZLI 1840
[4] = liquid crystal mixture ZLI 1957/5
[5] = liquid crystal mixture ZLI 2452

Compound	Degree of order S (at room temp.) [1, 3]	Degree of order S (at room temp.) [1, 4]	Solubility L (at room temp.) [2, 3]	Solubility L (at room temp.) [2, 4]	Degree of order S (at room temp.) [1, 5]	Solubility L (at room temp.) [2, 5]
CCCCc1nnc(-c2ccc(N=Nc3cc(C)c(N=Nc4ccc(OCc5ccc(C6CCC(CC)CC6)cc5)cc4C)cc3C)cc2)o1 (stereo not drawn) [Example 1]	0.76	0.76	1.6%	1.3%		
CCCCSc1nnc(-c2ccc(N=Nc3cc(C)c(N=Nc4ccc(N(C)CCCC)cc4)cc3C)cc2)s1 [Example 2]		0.74		1.1%		
Cc1cc(N=Nc2ccc(N(C)C)cc2)c(C)cc1N=Nc1ccc(-c2nnc(SCc3ccccc3)s2)cc1 [Example 4]	0.78		< 0.2%			
CCCCc1nnc(-c2ccc(N=Nc3cc(C)c(N=Nc4ccc(N(C)CCCC)cc4)cc3C)cc2)o1 [Example 5]	0.73	0.73	1.4%	1.3%		
CCOC(=O)c1sc(-c2ccc(N=Nc3ccc(N=Nc4ccc(N(C)C)cc4)c4ccccc34)cc2)nc1C [Example 7]	0.74		1.4%			
CCCCC1CCC(c2ccc(COc3ccc(N=Nc4ccc(N=Nc5ccc(-c6nnc(SCC(CC)CCCC)s6)cc5)c5ccccc45)c(C)c3)cc2)CC1 (stereo not drawn) [Example 18]					0.82	3.1%
CCCCCCCC(C)Sc1nnc(-c2ccc(N=Nc3ccc(N=Nc4ccc(OCc5ccc(C6CCC(CCCC)CC6)cc5)cc4C)c4ccccc34)cc2)s1 (stereo not drawn) [Example 19]		0.77		> 5%	0.84	> 5%

Results, then the compound that gave them:

Degree of order S (at room temp.) [1, 3]	Degree of order S (at room temp.) [1, 4]	Solubility L (at room temp.) [2, 3]	Solubility L (at room temp.) [2, 4]	Degree of order S (at room temp.) [1, 5]	Solubility L (at room temp.) [2, 5]	Compound
	0.68		> 5%			CCCCC(CC)c1nnc(-c2ccc(N=Nc3cc(C)c(N=Nc4ccc(N(C)CCCC)cc4)cc3C)cc2)o1 (stereo not drawn) [Example 6]
0.76	0.78	1.3%	0.5%			CCCCSc1nnc(-c2ccc(N=Nc3ccc(N=Nc4ccc(N(C)C)cc4)c4ccccc34)cc2)s1 [Example 8]
0.79	0.77	0.6%	0.3%			CCCCSc1nnc(-c2ccc(N=Nc3ccc(N=Nc4ccc(N(C)CCCC)cc4)c4ccccc34)cc2)s1 [Example 9]
	0.74		1.2%			CCCCc1nnc(-c2ccc(N=Nc3ccc(N=Nc4ccc(N(C)CCCC)cc4)c4ccccc34)cc2)o1 [Example 10]
	0.74		> 5%			CCCCC(CC)c1nnc(-c2ccc(N=Nc3ccc(N=Nc4ccc(N(C)CCCC)cc4)c4ccccc34)cc2)o1 (stereo not drawn) [Example 11]
	0.71		0.8%			CCCCC(CC)c1nnc(-c2ccc(N=Nc3ccc(N=Nc4ccc(NCC)c5ccccc45)c4ccccc34)cc2)o1 (stereo not drawn) [Example 12]
	0.77		0.7%			CCCCCCCCSc1nnc(-c2ccc(N=Nc3ccc(N=Nc4ccc(N(C)CCCC)cc4)c4ccccc34)cc2)s1 [Example 14]
				0.8	> 5%	CCCCC(CC)CSc1nnc(-c2ccc(N=Nc3ccc(N=Nc4ccc(N(C)CCCC)cc4)c4ccccc34)cc2)s1 (stereo not drawn) [Example 15]
				0.81	> 5%	CCCCCCCC(C)Sc1nnc(-c2ccc(N=Nc3ccc(N=Nc4ccc(N(C)CCCC)cc4)c4ccccc34)cc2)s1 (stereo not drawn) [Example 16]
